Measured values published in patent US20050142160A1, “ACTIVE ATTRACTANT COMPOSITION FOR INSECTS” (priority 2003, published 2005).

Experiments:
[1] = tested on: houseflies (musca domestica); assay: Test-room trap choice experiment, attractants compared with the standard (% of total flies caught); type: in vivo; conditions: for % Catch: Table 3, TMA/Z-9 and the combination; for attractiveness to flies (in words): attractant judged by itself or against a named alternative; for effect on the attractancy of the standard TMA/Z-9 when combined (in words): in combination with trimethylamine and Z-9-tricosene
Experimental: The trimethylamine (TMA) solution was prepared freshly for each experiment by dissolving a known amount of trimethylamine in a solution of sodium bicarbonate in water, to make 6 milliliters total volume. […] Additional attractants were placed in a third jar lid, or otherwise dispersed separately in the lower compartment of the test traps, for comparison against the standard. A testing room approximately 10 feet by 15 feet was furnished with folding tables on which to place the traps. In such a room was placed a total of six traps, two each of the control, the new attractant, and a combination of control+new attractant. Flies were raised from fly pupae, purchased from Beneficial […], California in a separate room under controlled conditions. For each experiment, after setting up the test traps, around 200 flies were introduced into the room for an 18-24 hour period, and observations were made periodically. At the end of each experiment, flies were counted in each trap, and the remaining flies not trapped were counted in order to account for all flies. In most cases, the remaining flies not caught had expired and were found on the floor of the testing suite. The data are reported for each trap as the percentage of the total flies caught, ignoring the flies not caught. It was observed that a percentage of the initially released flies were always weaker than the main population, and would quickly move toward the floor. Thus, only healthy, active flies were caught, since they were still foraging and seeking mating partners. The experiments were repeated daily, randomly rotating the relative positions of traps in the room with respect to their contents, such that positional effects in the room would be averaged out over many repetitions of the experiment. The results of each experiment, one per day, over one to two weeks, were totaled, and the total catch per attractant type were reported as percentage of catch (% catch).

flies = assay: Comparison of muscalure against other fly attractants; type: in vivo; conditions: compared against other fly attractants; no method given

Compound | attractiveness to flies (in words) [1] | effect on the attractancy of the standard TMA/Z-9 when combined (in words) [1] | also measured
CC(=O)O [Acetic Acid, Acetic acid] | weak attractant | no effect on the attractancy of TMA/Z-9 | % Catch ([1]; choice between acetic acid): 7%
C=CC(O)CCCCC (stereo not drawn) [Attractant 1-octen-3-ol, 1-octen-3-ol] | non-attractive or repellent to flies | lowered the overall relative catch | % Catch ([1]; choice between 1-octen-3-ol): 0%
CCO [Ethanol] | weak attractant | no statistically significant effect on the attractancy of the standard | % Catch ([1]; choice between ethanol): 7%
CCCC(=O)O [butyric acid] | – | increases the attractiveness of the attractant combination | –
CCCCCCCC/C=C\CCCCCCCCCCCCC [muscalure, Z-9-tricosene] | – | – | attractiveness to flies (in words) (flies): weak fly attractant
Z-9-epoxytricosene [Attractant Z-9-Epoxy] | no more attractive than Z-9-tricosene | – | –
